The structures appear in SMILES notation.

Experiment [1] addresses T1, ERp57 (Homo sapiens, UniProt P30101).
T1 construct: we performed the isothermal titration calorimetry of the whole protein and its two mutants; made in house; host or cells: E. coli BL21 (pET21)
T1 sequence (P30101 25-505): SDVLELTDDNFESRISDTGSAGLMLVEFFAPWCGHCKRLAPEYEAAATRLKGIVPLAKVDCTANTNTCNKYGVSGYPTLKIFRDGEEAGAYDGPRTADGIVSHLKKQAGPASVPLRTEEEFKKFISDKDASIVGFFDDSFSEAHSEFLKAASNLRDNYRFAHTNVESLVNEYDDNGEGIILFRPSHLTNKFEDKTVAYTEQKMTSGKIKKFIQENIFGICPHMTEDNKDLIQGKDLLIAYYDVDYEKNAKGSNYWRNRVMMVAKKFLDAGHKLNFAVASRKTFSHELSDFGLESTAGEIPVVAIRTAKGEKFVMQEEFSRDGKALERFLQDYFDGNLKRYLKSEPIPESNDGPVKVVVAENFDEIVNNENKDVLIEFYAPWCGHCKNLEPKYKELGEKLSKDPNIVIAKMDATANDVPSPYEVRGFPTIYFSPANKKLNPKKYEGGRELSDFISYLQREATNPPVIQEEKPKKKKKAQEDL
Description: Isothermal Titration Calorimetry of ERp57 with silibinin. Conditions: Figure 5b, ERp57 5 μM, silibinin 50 μM. Format: binding. The protocol:
Both the protein and the ligands were in the same buffer (see Materials and Methods). […] (Lower panel) Integrated heats of reaction plotted against the molar ratio of total ligand concentration to total protein concentration. […] The integrated heat of reaction is plotted against the molar ratio of total ligand concentration to total protein concentration.
ITC experiments were performed at 25 °C using a MicroCal ITC200 microcalorimeter (MicroCal Inc., Northampton, MA, USA). […] Samples were centrifuged before the experiments to eliminate possible aggregates. Protein and ligand solutions were degassed before use. Titrations were performed at 25 °C. The protein solution was placed in the sample cell, and each ligand solution was loaded into the syringe injector. The titrations involved 19 injections of 2 μL at 180 s intervals. The syringe stirring speed was set at 1,000 rpm. The reaction was very fast, as shown by the immediate appearance of an endothermic sharp peak following the addition of ligand to the protein and its deletion mutants solution in the microcalorimetric titration experiment. Reference titrations of ligand into buffer were used to correct for heats of dilution. […] The values of ΔH were measured for each titration, and fitting the binding isotherms with a one-site binding model yielded the values of the association constant (Ka). […]

Experiment [2] concerns ERp57. The following applies: cited from earlier work.

In the case of `COc1cc(C2Oc3cc([C@H]4Oc5cc(O)cc(O)c5C(=O)[C@@H]4O)ccc3OC2CO)ccc1O` (stereo partly drawn) [silibinin], on ERp57 [1], the “n (best fit)” value is reported as 0.776 (±0.0183) sites/mole. Further, the Kd at ERp57 [1] (read-out: Ka (best fit) (converted)) is 483 nM. The “affinity for ERp57 compared to calcitriol” value with ERp57 [2] was “at least two orders of magnitude lower”.

The values above are taken from PMC5126700 (Scientific Reports, 2016).
